In patent US20260049071A1, “PROTEIN TYROSINE KINASE INHIBITOR AND MEDICAL USE THEREOF” (BEYANG THERAPEUTICS CO., LTD., priority 2022, published 2026):

How the values were obtained:
[1] = target: KDR (VEGFR2) (Homo sapiens (Human), UniProt P35968); assay: Kinase inhibition, Mobility Shift Assay (VEGFR2); format: biochemical
Description: (§1) This assay directly monitored the ability of compounds to inhibit kinase phosphorylation by measuring non-phosphorylated and phosphorylated substrates in kinase reactions by using Mobility Shift Assays/IMAP™ analysis.
(§2) Add the kinase and DTT to 1× kinase buffer to form a 2.5× kinase solution; transfer 10 μL of 2.5× kinase solution to a 384-well reaction plate and add 1× kinase buffer to negative control wells. Incubate the plate for 10 min at room temperature; add FAM-labeled peptides, MgCl2, ATP and other reagents to 1× kinase buffer to form a 2.5× substrate solution; transfer 10 μL of the above 2.5× substrate solution to the 384-well reaction plate; incubate the plate at 28° C. for different times, and add 25 μL of stop solution to the 384-well reaction plate to stop the reaction. Read the conversion ratio data on CaliperEZ Reader II. Convert conversion rates into inhibition ratio data.
(§3) “Min” indicates the readout of the control well without the addition of kinase; and “Max” indicates the readout of the control well with the addition of DMSO. Fit IC50 values with XLFit excel add-in version 5.4.0.8.
(§4) X indicates the log value of compound concentration, and Y indicates the inhibition ratio (% inhibition).

[2] = target: FLT1 (VEGFR1) (Homo sapiens (Human), UniProt P17948); assay: Kinase inhibition, Mobility Shift Assay (VEGFR1); format: biochemical
FLT1 (VEGFR1), sequence (P17948 27-1338): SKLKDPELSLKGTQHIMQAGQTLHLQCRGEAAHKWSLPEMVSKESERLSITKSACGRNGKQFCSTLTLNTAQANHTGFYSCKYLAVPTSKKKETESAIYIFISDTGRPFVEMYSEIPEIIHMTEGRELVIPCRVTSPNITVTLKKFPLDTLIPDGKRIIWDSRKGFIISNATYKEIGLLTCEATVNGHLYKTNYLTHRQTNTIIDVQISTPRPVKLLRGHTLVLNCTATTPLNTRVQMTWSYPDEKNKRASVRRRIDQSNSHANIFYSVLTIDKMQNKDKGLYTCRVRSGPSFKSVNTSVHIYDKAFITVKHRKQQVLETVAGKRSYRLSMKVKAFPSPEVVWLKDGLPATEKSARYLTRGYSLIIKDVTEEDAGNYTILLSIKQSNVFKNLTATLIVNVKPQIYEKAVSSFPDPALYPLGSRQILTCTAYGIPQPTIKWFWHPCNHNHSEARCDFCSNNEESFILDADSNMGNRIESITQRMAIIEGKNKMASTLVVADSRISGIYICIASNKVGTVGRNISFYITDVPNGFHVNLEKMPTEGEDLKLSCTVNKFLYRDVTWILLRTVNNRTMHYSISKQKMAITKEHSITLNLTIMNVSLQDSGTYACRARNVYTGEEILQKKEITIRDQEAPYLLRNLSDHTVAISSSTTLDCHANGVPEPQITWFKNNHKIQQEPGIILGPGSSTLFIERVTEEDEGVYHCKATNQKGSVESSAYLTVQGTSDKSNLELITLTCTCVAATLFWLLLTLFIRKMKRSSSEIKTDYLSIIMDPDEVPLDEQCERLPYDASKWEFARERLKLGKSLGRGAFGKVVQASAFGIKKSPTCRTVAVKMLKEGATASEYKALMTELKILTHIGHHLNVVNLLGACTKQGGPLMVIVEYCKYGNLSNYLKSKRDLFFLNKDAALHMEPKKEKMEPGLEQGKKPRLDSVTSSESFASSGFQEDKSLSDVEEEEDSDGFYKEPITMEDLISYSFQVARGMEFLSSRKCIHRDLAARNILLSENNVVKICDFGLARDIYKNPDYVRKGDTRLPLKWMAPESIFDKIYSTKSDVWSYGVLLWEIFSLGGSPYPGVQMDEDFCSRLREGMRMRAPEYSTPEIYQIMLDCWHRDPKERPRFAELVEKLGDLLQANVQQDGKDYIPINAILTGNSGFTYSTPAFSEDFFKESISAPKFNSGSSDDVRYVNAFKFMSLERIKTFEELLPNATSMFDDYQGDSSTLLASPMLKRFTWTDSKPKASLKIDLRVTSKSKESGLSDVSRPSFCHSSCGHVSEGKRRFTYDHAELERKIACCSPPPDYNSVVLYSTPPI
Description: as §1, §2, §3, §4

[3] = target: FLT4 (VEGFR3) (Homo sapiens (Human), UniProt P35916); assay: Kinase inhibition, Mobility Shift Assay (VEGFR3); format: biochemical
FLT4 (VEGFR3), sequence (P35916 25-1363): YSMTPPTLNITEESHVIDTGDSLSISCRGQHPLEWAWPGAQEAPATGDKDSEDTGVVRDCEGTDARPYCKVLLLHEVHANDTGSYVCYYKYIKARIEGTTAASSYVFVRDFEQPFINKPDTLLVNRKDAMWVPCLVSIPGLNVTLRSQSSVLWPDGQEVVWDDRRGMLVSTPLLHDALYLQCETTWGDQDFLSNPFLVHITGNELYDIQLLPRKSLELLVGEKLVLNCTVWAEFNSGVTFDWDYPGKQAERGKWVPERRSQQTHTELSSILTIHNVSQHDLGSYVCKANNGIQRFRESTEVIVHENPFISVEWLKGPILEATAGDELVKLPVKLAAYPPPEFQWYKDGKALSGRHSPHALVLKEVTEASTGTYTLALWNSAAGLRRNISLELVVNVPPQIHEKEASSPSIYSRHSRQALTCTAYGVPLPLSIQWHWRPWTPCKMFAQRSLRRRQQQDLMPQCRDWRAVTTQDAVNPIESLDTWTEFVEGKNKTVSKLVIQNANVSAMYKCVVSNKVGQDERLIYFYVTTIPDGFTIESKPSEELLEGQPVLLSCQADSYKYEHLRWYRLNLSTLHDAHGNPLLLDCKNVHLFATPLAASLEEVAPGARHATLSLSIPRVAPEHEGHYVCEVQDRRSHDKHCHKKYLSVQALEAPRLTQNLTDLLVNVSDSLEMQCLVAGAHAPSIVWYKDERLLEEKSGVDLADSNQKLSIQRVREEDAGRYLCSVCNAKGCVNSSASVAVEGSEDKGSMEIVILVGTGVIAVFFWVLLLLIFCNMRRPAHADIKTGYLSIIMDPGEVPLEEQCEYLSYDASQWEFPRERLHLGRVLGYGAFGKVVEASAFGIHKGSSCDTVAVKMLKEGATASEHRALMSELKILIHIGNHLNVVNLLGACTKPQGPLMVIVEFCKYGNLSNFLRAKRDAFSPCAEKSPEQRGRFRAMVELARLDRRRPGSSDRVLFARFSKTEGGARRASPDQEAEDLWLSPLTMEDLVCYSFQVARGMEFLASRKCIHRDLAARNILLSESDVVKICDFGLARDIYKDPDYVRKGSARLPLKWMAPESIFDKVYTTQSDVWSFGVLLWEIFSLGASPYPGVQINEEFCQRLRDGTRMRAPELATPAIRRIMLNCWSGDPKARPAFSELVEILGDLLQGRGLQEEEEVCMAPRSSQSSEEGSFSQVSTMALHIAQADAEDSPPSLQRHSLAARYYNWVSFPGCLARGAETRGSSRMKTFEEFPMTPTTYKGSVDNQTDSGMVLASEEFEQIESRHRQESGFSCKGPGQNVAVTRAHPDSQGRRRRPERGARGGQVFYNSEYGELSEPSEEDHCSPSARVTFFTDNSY
Description: as §1, §2, §3, §4

[4] = tested on: melanin; assay: Binding capacity of compounds to melanin; format: in vitro ADME; settings: Sepia officinalis (cuttlefish), melanin suspension (1 mg/mL); 1 mg/mL melanin suspension in PBS pH 7.4, 2 μM compound, 2 h at 37° C.; read-out: Fu % (percentage of free drug, not bound to melanin)
Excerpt: Pigmented eye tissues contain melanin in intracellular melanosomes. Drugs bind to melanin to varying degrees, ranging from non-binding to extensive binding. Therefore, melanin binding is an important feature that affects drug delivery and biodistribution in the eye. The binding capacity of a compound to the melanin must be considered in the development of ophthalmic drugs.
Melanin was derived from the melanin of cuttlefish (Sepia officinalis) and was commercially available from Sigma Aldrich (St Louis, MO).
First, prepare 1 mg/mL melanin suspension with PBS (pH 7.4). As a washing step for the matrix, centrifuge the suspended particles for 5 min at 3000 rpm. Resuspend the resulting particles in a fresh PBS buffer, heat to 37° C. over continuous shaking and incubate it for 1 h. Accurately pipette 2 μL of the test stock solution (0.1 mM) into 98 μL of melanin suspension (1 mg/mL) to achieve a final incubation concentration of 2 μM. Similarly, accurately pipette 2 μL of the stock solution (0.1 mM) to 98 μL of PBS buffer (containing 0.1% BSA) as a blank control sample. Incubate the samples in a shaker (80-90 rpm) for 2 h at 37° C. Then, centrifuge the samples at room temperature. Pipette 50 μL of the supernatant and add 50 μL of precipitant (containing an internal standard). After protein precipitation of all the above samples, centrifuge the samples to collect the supernatants, dilute the supernatants with water (if necessary) and inject them for analysis. At the same time, measure the positive controls, including the high-binding compounds Sunitinib and chloroquine and the low-binding compound celecoxib. Establish an LC-MS/MS method for determining compound concentrations, and calibrate the peak area ratio of analyte/internal standard (Analyte/AIS) in the measured sample by the dilution factor to take it as an alternative concentration for the sample for data processing. The binding rate (Fh) of a compound in melanin was calculated as: […]
Ctest was the concentration of the compound in the melanin-incubated sample or the peak area ratio of the test compound to the internal standard. Ccontrol was the concentration of the compound in the blank control sample or the peak area ratio of the test compound to the internal standard. Percentage of free drug (Fu %)=100−Fb The binding rates of the compounds of the present invention to melanin are shown in the table below: […]

[5] = target: EGFR (Homo sapiens (Human), UniProt P00533); assay: Kinase inhibition, Mobility Shift Assay (EGFR); format: biochemical
EGFR, sequence (P00533 25-1210): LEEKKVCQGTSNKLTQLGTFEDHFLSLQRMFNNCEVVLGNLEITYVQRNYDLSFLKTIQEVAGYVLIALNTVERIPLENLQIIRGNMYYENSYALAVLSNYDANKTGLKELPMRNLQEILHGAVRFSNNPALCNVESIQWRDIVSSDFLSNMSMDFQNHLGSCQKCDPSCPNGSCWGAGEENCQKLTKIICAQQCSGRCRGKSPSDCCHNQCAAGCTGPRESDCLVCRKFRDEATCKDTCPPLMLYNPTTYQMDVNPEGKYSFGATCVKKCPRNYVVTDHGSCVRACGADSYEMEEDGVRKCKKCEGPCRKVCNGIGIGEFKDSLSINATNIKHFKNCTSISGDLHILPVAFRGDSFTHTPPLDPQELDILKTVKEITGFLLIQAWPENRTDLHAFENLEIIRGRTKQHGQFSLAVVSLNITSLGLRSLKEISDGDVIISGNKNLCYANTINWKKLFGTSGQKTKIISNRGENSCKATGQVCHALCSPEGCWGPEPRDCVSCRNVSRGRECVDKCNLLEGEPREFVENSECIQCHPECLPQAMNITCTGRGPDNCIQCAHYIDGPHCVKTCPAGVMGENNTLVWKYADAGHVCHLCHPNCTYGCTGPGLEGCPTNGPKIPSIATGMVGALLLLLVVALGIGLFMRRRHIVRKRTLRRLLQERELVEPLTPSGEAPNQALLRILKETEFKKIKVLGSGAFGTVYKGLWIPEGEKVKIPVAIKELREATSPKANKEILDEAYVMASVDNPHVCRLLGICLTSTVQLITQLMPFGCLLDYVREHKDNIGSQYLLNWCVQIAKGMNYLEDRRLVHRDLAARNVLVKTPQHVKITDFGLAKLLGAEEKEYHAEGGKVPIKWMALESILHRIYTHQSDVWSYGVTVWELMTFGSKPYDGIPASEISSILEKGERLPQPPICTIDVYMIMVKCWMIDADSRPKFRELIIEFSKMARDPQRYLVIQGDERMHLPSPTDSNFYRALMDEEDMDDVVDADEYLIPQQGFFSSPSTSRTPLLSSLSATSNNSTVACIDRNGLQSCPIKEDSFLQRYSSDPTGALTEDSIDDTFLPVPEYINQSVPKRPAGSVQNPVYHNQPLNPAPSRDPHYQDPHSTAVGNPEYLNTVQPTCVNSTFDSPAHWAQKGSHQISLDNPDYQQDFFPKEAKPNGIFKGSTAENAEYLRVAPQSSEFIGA
Description: as §1, §2, §3, §4

KDR (VEGFR2), sequence (P35968 790-1356): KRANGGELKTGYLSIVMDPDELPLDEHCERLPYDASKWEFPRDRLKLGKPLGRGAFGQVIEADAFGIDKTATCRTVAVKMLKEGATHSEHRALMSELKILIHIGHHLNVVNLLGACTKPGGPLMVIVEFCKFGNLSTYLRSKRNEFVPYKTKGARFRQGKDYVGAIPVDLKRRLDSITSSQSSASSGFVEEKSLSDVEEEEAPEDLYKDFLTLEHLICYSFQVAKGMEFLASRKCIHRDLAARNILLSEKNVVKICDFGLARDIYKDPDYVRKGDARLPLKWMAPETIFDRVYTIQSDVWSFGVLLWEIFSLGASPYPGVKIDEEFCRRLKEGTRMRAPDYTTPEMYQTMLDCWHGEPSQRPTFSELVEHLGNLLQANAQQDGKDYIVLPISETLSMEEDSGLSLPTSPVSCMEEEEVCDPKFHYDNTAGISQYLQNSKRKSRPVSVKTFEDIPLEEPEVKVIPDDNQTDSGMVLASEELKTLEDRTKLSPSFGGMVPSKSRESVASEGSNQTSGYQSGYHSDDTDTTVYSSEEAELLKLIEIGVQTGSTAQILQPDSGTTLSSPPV

IC50 [1] [nM] | IC50 [2] [nM] | IC50 [3] [nM] | fraction unbound at 2 h, 2 μM [4] | IC50 [5] [nM] | SMILES
≤ 1 | ≤ 1 | ≤ 1 | > 0.05 |  | CNC(=O)c1ccccc1Sc1ccc2c(/C=C/c3ccc(OCC4CCN(C)C4)cn3)n[nH]c2c1 (centres unmarked) [Compound I-1, N-methyl-2-({3-[(E)-2-{5-[(1-methylpyrrolidin-3-yl)methoxy]pyridin-2-yl}vinyl]-1H-indazol-6-yl}thio)benzamide]
≤ 1 | ≤ 1 | ≤ 1 | > 0.05 | 6000 to 60000 | CNC(=O)c1ccccc1Sc1ccc2c(/C=C/c3ccc(OCCN4CCN(C)CC4)cn3)n[nH]c2c1 [Compound I-4, N-methyl-2-({3-[(E)-2-{5-[2-(4-methylpiperazin-1-yl)ethoxy]pyridin-2-yl}vinyl]-1H-indazol-6-yl}thio)benzamide]
≤ 1 | ≤ 1 | ≤ 1 | 0.01 to 0.05 | 6000 to 60000 | CNC(=O)c1ccccc1Sc1ccc2c(/C=C/c3ccc(OCCC4CCN(C)CC4)cn3)n[nH]c2c1 [Compound I-5, N-methyl-2-({3-[(E)-2-{5-[2-(1-methylpiperidin-4-yl)ethoxy]pyridin-2-yl}vinyl]-1H-indazol-6-yl}thio)benzamide]
1 to 10 | 1 to 10 | 1 to 10 | 0.01 to 0.05 | 6000 to 60000 | O=C(NC1CC1)c1ccccc1Sc1ccc2c(/C=C/c3ccc(OCCN4CCCC4)cn3)n[nH]c2c1 [Compound I-8, N-cyclopropyl-2-({3-[(E)-2-{5-[2-(pyrrolidin-1-yl)ethoxy]pyridin-2-yl}vinyl]-1H-indazol-6-yl}thio)benzamide]
1 to 10 | 1 to 10 | 1 to 10 | 0.01 to 0.05 | 6000 to 60000 | CNC(=O)c1ccccc1Sc1ccc2c(/C=C/c3ccn(CCCN4CCCC4)n3)n[nH]c2c1 [Compound I-11, N-methyl-2-({3-[(E)-2-{1-[3-(pyrrolidin-1-yl)propyl]-1H-pyrazole-3-yl}vinyl]-1H-indazol-6-yl}thio)benzamide]
1 to 10 | 1 to 10 | ≤ 1 | 0.01 to 0.05 | 6000 to 60000 | CNC(=O)c1ccccc1Sc1ccc2c(/C=C/c3ccn(CCN4CCCC4)n3)n[nH]c2c1 [Compound I-13, N-methyl-2-({3-[(E)-2-{1-[2-(pyrrolidin-1-yl)ethyl]-1H-pyrazole-3-yl}vinyl]-1H-indazol-6-yl}thio)benzamide]
1 to 10 | 1 to 10 | 1 to 10 | 0.01 to 0.05 | 6000 to 60000 | CNC(=O)c1ccccc1Sc1ccc2c(/C=C/c3cccc(OCCN4CCCC4)c3)n[nH]c2c1 [Compound I-15, N-methyl-2-({3-[(E)-2-{3-[2-(pyrrolidin-1-yl)ethoxy]phenyl}vinyl]-1H-indazol-6-yl}thio)benzamide]
1 to 10 | 1 to 10 | 1 to 10 | < 0.01 | 6000 to 60000 | CNC(=O)c1ccccc1Sc1ccc2c(C#Cc3ccc(OCCN4CCCC4)cn3)n[nH]c2c1 [Compound I-16, N-methyl-2-{[3-(2-{5-[2-(pyrrolidin-1-yl)ethoxy]pyridin-2-yl}ethynyl)-1H-indazol-6-yl]thio}benzamide]
1 to 10 | 1 to 10 | 1 to 10 | 0.01 to 0.05 | 6000 to 60000 | CNC(=O)c1ccccc1Sc1ccc2c(/C=C/c3cccc(OCCN4CCCC4)n3)n[nH]c2c1 [Compound I-17, N-methyl-2-({3-[(E)-2-{6-[2-(pyrrolidin-1-yl)ethoxy]pyridin-2-yl}vinyl]-1H-indazol-6-yl}thio)benzamide]
1 to 10 | 1 to 10 | 1 to 10 | 0.01 to 0.05 | 6000 to 60000 | CNC(=O)c1ccccc1Sc1ccc2c(/C=C/c3ccnc(OCCN4CCCC4)c3)n[nH]c2c1 [Compound I-18, N-methyl-2-({3-[(E)-2-{2-[2-(pyrrolidin-1-yl)ethoxy]pyridin-4-yl}vinyl]-1H-indazol-6-yl}thio)benzamide]
1 to 10 | 1 to 10 | 1 to 10 | 0.01 to 0.05 | > 60000 | CNC(=O)c1ccccc1Sc1ccc2c(/C=C/c3ccc(OCCN4CCCC4)nc3)n[nH]c2c1 [Compound I-19, N-methyl-2-({3-[(E)-2-{6-[2-(pyrrolidin-1-yl)ethoxy]pyridin-3-yl}vinyl]-1H-indazol-6-yl}thio)benzamide]
10 to 100 | 10 to 100 | 10 to 100 | 0.01 to 0.05 | 6000 to 60000 | CNC(=O)c1ccccc1Sc1cnc2c(/C=C/c3ccccn3)n[nH]c2c1 [Compound I-21, N-methyl-2-({3-[(E)-2-(pyridin-2-yl)vinyl]-1H-pyrazolo[4,3-b]pyridin-6-yl}thio)benzamide]
10 to 100 | 10 to 100 | 10 to 100 | 0.01 to 0.05 | > 60000 | CNC(=O)c1ccccc1Sc1ccc2c(/C=C/c3cncc(OCCN4CCCC4)c3)n[nH]c2c1 [Compound I-22, N-methyl-2-({3-[(E)-2-{5-[2-(pyrrolidin-1-yl)ethoxy]pyridin-3-yl}vinyl]-1H-indazol-6-yl}thio)benzamide]
10 to 100 | 10 to 100 | > 100 | 0.01 to 0.05 | 6000 to 60000 | CNC(=O)c1ccccc1Sc1ccc2c(C#Cc3cc(OCCN4CCCC4)ccn3)n[nH]c2c1 [Compound I-23, N-methyl-2-{[3-(2-{4-[2-(pyrrolidin-1-yl)ethoxy]pyridin-2-yl}ethynyl)-1H-indazol-6-yl]thio}benzamide]
> 100 | 10 to 100 | 10 to 100 | > 0.05 | 6000 to 60000 | CNC(=O)c1ccccc1Sc1ccc2c(/C=C/c3ccnn3CCN3CCCC3)n[nH]c2c1 [Compound I-25, N-methyl-2-({3-[(E)-2-{1-[2-(pyrrolidin-1-yl)ethyl]-1H-pyrazole-5-yl}vinyl]-1H-indazol-6-yl}thio)benzamide]
> 100 | > 100 | > 100 | 0.01 to 0.05 | > 60000 | CNC(=O)c1ccccc1Sc1ccc2c(NC(=O)NCCN3CCN(C)CC3)n[nH]c2c1 [Compound I-31]
1 to 10 | 1 to 10 | 1 to 10 | 0.01 to 0.05 | 6000 to 60000 | CNC(=O)c1ccccc1Sc1ccc2c(/C=C/c3cnn(CCCN4CCCC4)c3)n[nH]c2c1 [Compound I-32, N-methyl-2-({3-[(E)-2-{1-[3-(pyrrolidin-1-yl)propyl]-1H-pyrazole-4-yl}vinyl]-1H-indazol-6-yl}thio)benzamide]
≤ 1 | 1 to 10 | 1 to 10 |  | > 60000 | O=C(NC1CC1)c1ccccc1Sc1ccc2c(/C=C/c3cc(CCCN4CCCC4)ccn3)n[nH]c2c1 [Compound I-120, N-cyclopropyl-2-({3-[(E)-2-{4-[3-(pyrrolidin-1-yl)propyl]pyridin-2-yl}vinyl]-1H-indazol-6-yl}thio)benzamide]
≤ 1 | 1 to 10 | ≤ 1 |  | 6000 to 60000 | O=C(NC1CC1)c1ccccc1Sc1ccc2c(/C=C/c3cccc(CCCN4CCCC4)n3)n[nH]c2c1 [Compound I-121, N-cyclopropyl-2-({3-[(E)-2-{6-[3-(pyrrolidin-1-yl)propyl]pyridin-2-yl}vinyl]-1H-indazol-6-yl}thio)benzamide]
